From BindingDB's records for doi:10.1021/np500757w (University of California San Diego, 2015)

Target: Endoplasmic reticulum chaperone BiP (Homo sapiens, UniProt P11021)
Test: Inhibition of 2-deoxyglucose-induced GRP78 (unknown origin) expression transfected in human HT1080 cells by luciferase reporter gene assay

Sequence of Endoplasmic reticulum chaperone BiP (P11021 whole entry): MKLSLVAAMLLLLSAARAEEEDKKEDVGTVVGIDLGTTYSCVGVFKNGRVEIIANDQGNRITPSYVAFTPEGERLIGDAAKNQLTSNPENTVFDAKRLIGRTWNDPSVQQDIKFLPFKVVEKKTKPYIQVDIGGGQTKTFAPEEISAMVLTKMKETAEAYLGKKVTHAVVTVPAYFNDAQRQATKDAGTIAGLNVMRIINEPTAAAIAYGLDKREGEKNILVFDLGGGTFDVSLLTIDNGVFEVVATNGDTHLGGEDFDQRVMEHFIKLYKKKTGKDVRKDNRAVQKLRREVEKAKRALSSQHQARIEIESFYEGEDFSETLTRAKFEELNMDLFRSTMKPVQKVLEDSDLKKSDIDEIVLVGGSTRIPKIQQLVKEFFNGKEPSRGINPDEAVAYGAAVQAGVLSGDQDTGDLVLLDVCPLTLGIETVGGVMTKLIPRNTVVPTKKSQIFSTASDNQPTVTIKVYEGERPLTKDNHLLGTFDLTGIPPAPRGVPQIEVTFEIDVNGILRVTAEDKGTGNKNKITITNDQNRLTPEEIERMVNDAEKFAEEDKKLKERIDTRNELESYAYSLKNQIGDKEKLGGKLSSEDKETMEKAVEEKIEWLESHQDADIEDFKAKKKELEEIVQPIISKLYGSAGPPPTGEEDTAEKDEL

- IC50: 300 nM
SMILES: CC/C1=C/[C@H](CO)C[C@@H](C)[C@H](O[C@H]2C[C@H](O)[C@H](O[C@@H]3O[C@@H](C)[C@H](O[C@H]4C[C@H](O)[C@H](O)[C@@H](C)O4)[C@@H](OC)[C@H]3O)[C@@H](C)O2)[C@H](C)CCC[C@]2(C)C=C(C)[C@H](C)C[C@]23OC(=O)C(=C3O)C(=O)[C@@]2(CC)[C@H]3[C@H](C=C(C)[C@@H]12)[C@@H](O)CC(=O)[C@@H]3C
